Test results: patent US8008298B2, “Pyrrolopyrazine kinase inhibitors” (Roche Palo Alto, priority 2008, dated 2011)

Row | Structure (SMILES) | melting point [°C]
1 | CCOC(C)(OCC)C(=O)c1c[nH]c2ncc(-c3cc(OC)c(OC)c(OC)c3)nc12 [Example 72, 2,2-Diethoxy-1-[2-(3,4,5-trimethoxy-phenyl)-5H-pyrrolo[2,3-b]pyrazin-7-yl]-propan-1-one] | 198.2 to 201
2 | CC1(C(=O)c2c[nH]c3ncc(-c4cccc(N5CCOCC5)c4)nc23)CCCCC1 [Example 153, (1-Methyl-cyclohexyl)-[2-(3-morpholin-4-yl-phenyl)-5H-pyrrolo[2,3-b]pyrazin-7-yl]-methanone] | 208 to 209
3 | CC(C)(C)C(=O)c1c[nH]c2ncc(-c3ccc(-c4ccccc4)cc3)nc12 [Example I-355, 1-(2-Biphenyl-4-yl-5H-pyrrolo[2,3-b]pyrazin-7-yl)-2,2-dimethyl-propan-1-one] | 275 to 277
4 | CC(C)(C)C(=O)c1c[nH]c2ncc(-c3cc(N4CCCC4)cc(N4CCCC4)c3)nc12 [Example 97, 1-[2-(3,5-Di-pyrrolidin-1-yl-phenyl)-5H-pyrrolo[2,3-b]pyrazin-7-yl]-2,2-dimethyl-propan-1-one] | 291 to 303
5 | CC(C)(C)C(=O)c1c[nH]c2ncc(-c3ccccc3O)nc12 [Example 152, 1-[2-(2-Hydroxy-phenyl)-5H-pyrrolo[2,3-b]pyrazin-7-yl]-2,2-dimethyl-propan-1-one] | 282 to 283
6 | CC(C)(C)C(=O)c1c[nH]c2ncc(-c3cccc(N4CCS(=O)(=O)CC4)c3)nc12 [Example 230, 1-{2-[3-(1,1-Dioxo-1lambda*6*-thiomorpholin-4-yl)-phenyl]-5H-pyrrolo[2,3-b]pyrazin-7-yl}-2,2-dimethyl-propan-1-one] | 279 to 280
7 | CCNc1cccc(-c2cnc3[nH]cc(C(=O)C(C)(C)C)c3n2)c1 [Example 227, 1-[2-(3-Ethylamino-phenyl)-5H-pyrrolo[2,3-b]pyrazin-7-yl]-2,2-dimethyl-propan-1-one] | 189 to 191
8 | CC1(C(=O)c2c[nH]c3ncc(-c4ccc(N5CCOCC5)cc4)nc23)CCCCC1 [Example 172, (1-Methyl-cyclohexyl)-[2-(4-morpholin-4-yl-phenyl)-5H-pyrrolo[2,3-b]pyrazin-7-yl]-methanone] | 233 to 235
9 | Cc1nnc(-c2cccc(-c3cnc4[nH]cc(C(=O)C5(C)CCCCC5)c4n3)c2)o1 [Example 155, (1-Methyl-cyclohexyl)-{2-[3-(5-methyl-[1,3,4]oxadiazol-2-yl)-phenyl]-5H-pyrrolo[2,3-b]pyrazin-7-yl}-methanone] | 234 to 236
10 | COc1ccc(-c2cnc3[nH]cc(C(=O)NC4CCN(C(C)=O)C4)c3n2)cc1OC (stereo not drawn) [Example 26, 2-(3,4-Dimethoxy-phenyl)-5H-pyrrolo[2,3-b]pyrazine-7-carboxylic acid (1-acetyl-pyrrolidin-3-yl)-amide] | 211 to 212
11 | CC(C)CC(=O)c1c[nH]c2ncc(-c3cccc(N4CCCC4)c3)nc12 [Example I-6, 3-Methyl-1-[2-(3-pyrrolidin-1-yl-phenyl)-5H-pyrrolo[2,3-b]pyrazin-7-yl]-butan-1-one] | 260 to 261
12 | Cc1cc(-c2cnc3[nH]cc(C(=O)C(C)(C)C)c3n2)cc(C(C)(C)C)c1 [Example I-334, 1-[2-(3-tert-Butyl-5-methyl-phenyl)-5H-pyrrolo[2,3-b]pyrazin-7-yl]-2,2-dimethyl-propan-1-one] | 234.9 to 236.1
13 | CNC(=O)C1(C)CCN(c2cccc(-c3cnc4[nH]cc(C(=O)C(C)(C)C)c4n3)c2)C1 (stereo not drawn) [Example 210, 1-{3-[7-(2,2-Dimethyl-propionyl)-5H-pyrrolo[2,3-b]pyrazin-2-yl]-phenyl}-3-methyl-pyrrolidine-3-carboxylic acid methylamide] | 252 to 254
14 | CC(C)(C)C(=O)c1c[nH]c2ncc(-c3cccc(N4CC5(COC5)C4)c3)nc12 [Example 282, 2,2-dimethyl-1-{2-[3-(2-oxa-6-aza-spiro[3.3]hept-6-yl)-phenyl]-5H-pyrrolo[2,3-b]pyrazin-7-yl}-propan-1-one] | 260 to 262
15 | O=C(c1c[nH]c2ncc(Br)nc12)C12CC3CC(CC(C3)C1)C2 [Example 161, Adamantan-1-yl-(2-bromo-5H-pyrrolo[2,3-b]pyrazin-7-yl)-methanone] | 279 to 280
16 | COc1cc(OC)cc(-c2cnc3[nH]cc(C(=O)C(C)(C)C)c3n2)c1 [Example 146, 1-[2-(3,5-Dimethoxy-phenyl)-5H-pyrrolo[2,3-b]pyrazin-7-yl]-2,2-dimethyl-propan-1-one] | 206.9 to 207.7
17 | CC(C)(C)C(=O)c1c[nH]c2ncc(-c3cccc(NC4=NCCN4)c3)nc12 [Example 236, 1-{2-[3-(4,5-Dihydro-1H-imidazol-2-ylamino)-phenyl]-5H-pyrrolo[2,3-b]pyrazin-7-yl}-2,2-dimethyl-propan-1-one] | 228 to 230
18 | Cc1ccc(-c2cnc3[nH]cc(C(=O)C(C)(C)C)c3n2)cc1NS(=O)(=O)c1ccc(N)cc1 [Example I-416, 4-Amino-N-{5-[7-(2,2-dimethyl-propionyl)-5H-pyrrolo[2,3-b]pyrazin-2-yl]-2-methyl-phenyl}-benzenesulfonamide] | 264 to 266

Row | Structure (SMILES) | melting point [°C]
19 | COc1cc(-c2cnc3[nH]cc(C(=O)Cc4ccccc4)c3n2)cc(OC)c1OC [Example 64, 2-phenyl-1-[2-(3,4,5-trimethoxy-phenyl]-5H-pyrrolo[2,3-b]pyrazin-7-yl]-ethanone] | 226 to 227
20 | COc1cc(-c2cnc3[nH]cc(C(=O)C(C)(C)CO)c3n2)cc(OC)c1OC [Example 165, 3-hydroxy-2,2-dimethyl-1-[2-(3,4,5-trimethoxy-phenyl)-5H-pyrrolo[2,3-b]pyrazin-7-yl]-propan-1-one] | 227 to 229
21 | CC(C)(C)C(=O)c1c[nH]c2ncc(-c3cccc(-c4ccccc4)c3)nc12 [Example I-335, 1-(2-Biphenyl-3-yl-5H-pyrrolo[2,3-b]pyrazin-7-yl)-2,2-dimethyl-propan-1-one] | 219.9 to 221.1
22 | CC(=O)Nc1ccc(S(=O)(=O)Nc2cccc(-c3cnc4[nH]cc(C(=O)C(C)(C)C)c4n3)c2)cc1 [Example I-412, N-(4-{3-[7-(2,2-Dimethyl-propionyl)-5H-pyrrolo[2,3-b]pyrazin-2-yl]-phenylsulfamoyl}-phenyl)-acetamide] | 226 to 228
23 | CC1(C(=O)c2c[nH]c3ncc(-c4cccc(N5CCCC5=O)c4)nc23)CCCCC1 [Example 283, 1-{3-[7-(1-methyl-cyclohexanecarbonyl)-5H-pyrrolo[2,3-b]pyrazin-2-yl]-phenyl}-pyrrolidin-2-one] | 215 to 217
24 | COC1CN(c2cccc(-c3cnc4[nH]cc(C(=O)C(C)(C)C)c4n3)c2)C1 [Example 111, 1-{2-[3-(3-Methoxy-azetidin-1-yl)-phenyl]-5H-pyrrolo[2,3-b]pyrazin-7-yl}-2,2-dimethyl-propan-1-one] | 196 to 198
25 | CC1(C(=O)c2c[nH]c3ncc(-c4cccc(N5CCN(S(C)(=O)=O)CC5)c4)nc23)CCCCC1 [Example 181, {2-[3-(4-Methanesulfonyl-piperazin-1-yl)-phenyl]-5H-pyrrolo[2,3-b]pyrazin-7-yl}-(1-methyl-cyclohexyl)-methanone] | 230 to 231
26 | CC(C)(C)C(=O)c1c[nH]c2ncc(-c3cccc(N4CCC(O)C4)c3)nc12 (stereo not drawn) [Example I-402, 1-{2-[3-(3-Hydroxy-pyrrolidin-1-yl)-phenyl]-5H-pyrrolo[2,3-b]pyrazin-7-yl}-2,2-dimethyl-propan-1-one] | 245 to 248
27 | CCNC(=O)c1cccc(-c2cnc3[nH]cc(C(=O)C(C)(C)C)c3n2)c1 [Example I-365, 3-[7-(2,2-Dimethyl-propionyl)-5H-pyrrolo[2,3-b]pyrazin-2-yl]-N-ethyl-benzamide] | 232 to 233
28 | CC(C)(C)OCc1cccc(-c2cnc3[nH]cc(C(=O)C(C)(C)C)c3n2)c1 [Example I-336, 1-[2-(3-tert-Butoxymethyl-phenyl)-5H-pyrrolo[2,3-b]pyrazin-7-yl]-2,2-dimethyl-propan-1-one] | 202 to 203
29 | CC1(C(=O)c2c[nH]c3ncc(-c4cccc(N5CCN(C(=O)CC#N)CC5)c4)nc23)CCCCC1 [Example 178, 3-(4-{3-[7-(1-Methyl-cyclohexanecarbonyl)-5H-pyrrolo[2,3-b]pyrazin-2-yl]-phenyl}-piperazin-1-yl)-3-oxo-propionitrile] | 214 to 216
30 | CC(C)(C)C(=O)c1c[nH]c2ncc(-c3cccc(-n4cccc4)c3)nc12 [Example 232, 2,2-Dimethyl-1-[2-(3-pyrrol-1-yl-phenyl)-5H-pyrrolo[2,3-b]pyrazin-7-yl]-propan-1-one] | 220 to 222
31 | COCOc1cc(-c2cnc3[nH]cc(C(=O)C(C)(C)C)c3n2)cc(N2CCCC2)c1 [Example I-151, 1-[2-(3-Methoxymethoxy-5-pyrrolidin-1-yl-phenyl)-5H-pyrrolo[2,3-b]pyrazin-7-yl]-2,2-dimethyl-propan-1-one] | 229 to 230
32 | CC(C)(C)C(=O)c1c[nH]c2ncc(-c3cccc(-c4ccn[nH]4)c3)nc12 [Example I-126, 2,2-Dimethyl-1-{2-[3-(2H-pyrazol-3-yl)-phenyl]-5H-pyrrolo[2,3-b]pyrazin-7-yl}-propan-1-one] | 277 to 278
33 | COc1ccccc1-c1cnc2[nH]cc(C(=O)C(C)(C)C)c2n1 [Example I-133, 1-[2-(2-Methoxy-phenyl)-5H-pyrrolo[2,3-b]pyrazin-7-yl]-2,2-dimethyl-propan-1-one] | 199.5 to 200.7
34 | CC1(C(=O)c2c[nH]c3ncc(-c4ccc(N5CCNCC5)cc4)nc23)CCCCC1 [Example 185, (1-Methyl-cyclohexyl)-[2-(4-piperazin-1-yl-phenyl)-5H-pyrrolo[2,3-b]pyrazin-7-yl]-methanone] | 214 to 216
35 | CNC(=O)c1cccc(-c2cnc3[nH]cc(C(=O)C(C)(C)C)c3n2)c1 [Example I-129, 3-[7-(2,2-Dimethyl-propionyl)-5H-pyrrolo[2,3-b]pyrazin-2-yl]-N-methyl-benzamide] | 257 to 258
36 | CC(C)(C)C(=O)c1c[nH]c2ncc(-c3cccc(C4=CCCCC4)c3)nc12 [Example I-352, 1-[2-(3-Cyclohex-1-enyl-phenyl)-5H-pyrrolo[2,3-b]pyrazin-7-yl]-2,2-dimethyl-propan-1-one] | 188 to 190
